Converted amounts (≈) assume the structure as drawn. Where two headings read alike, the source gives them in different places. In the oligonucleotide strings, read from the 5' end, every base follows the letter of its sugar. An asterisk marks phosphorothioate; unmarked linkages are phosphodiester. Other units and linkages are bracketed, terminal groups are in braces. A string of capitals states the bases alone. Bridge positions count the residues as written; N and C are the ends. Square brackets hold non-standard residues; d marks the D form. Peptide text beside a SMILES is read from it. {FL} = fluorescein label; Dab = NCC[C@H](N)C(=O)O; d = 2'-deoxy (DNA); m = 2'-O-methyl
Assays:
[1] = tested on: M. tuberculosis Erdman strain; format: cell-based; details: 6 weeks, O.D.; for inhibition of M. tuberculosis in the presence of antibiotic (in words): 10 μM plus ethambutol 5 μg/ml; for M. tuberculosis growth in the absence of antibiotic (in words): 10 μM
[2] = tested on: M. tuberculosis Erdman strain; format: cell-based
[3] = tested on: M. smegmatis 1-2c; experiment: microbe, parasite or virus in culture; details: Mycolicibacterium smegmatis, 12C
[4] = tested on: M. tuberculosis Erdman; experiment: microbe, parasite or virus in culture; details: Mycobacterium tuberculosis
[5] = tested on: M. tuberculosis; format: cell-based; details: log reduction in CFU vs untreated control or MM-PS-ODN cultures; 10 μM, added once at start
[6] = tested on: M. tuberculosis Erdman; format: cell-based
[7] = tested on: M. tuberculosis Erdman
[8] = tested on: M. smegmatis 1-2c
[9] = tested on: M. tuberculosis Erdman; details: Harth et al. 1999, cited from earlier work
[10] = tested on: poly-L-glutamate/glutamine in the cell wall of M. tuberculosis; details: 20 μM; Harth et al. 1999; cited from earlier work
[11] = tested on: M. tuberculosis Erdman glutamine synthetase; details: 20 μM; Harth et al. 1999; cited from earlier work

For “5′-TGCCGCAGCCACGGCGACGGCCGTGGTGTCCGAACC (SEQ ID NO: 12) [Val 34]”, the “inhibition of M. tuberculosis in the presence of antibiotic (in words)” value (shortened to “inhibition of M. tuberculosis … (in words)”) [1] was “enhanced the inhibition” and the “M. tuberculosis growth in the absence of antibiotic (in words)” value (“M. tuberculosis growth in the absence” for short) [1] was “inhibited”.

For “5-GAACGCCGGGGTGTTGATGTCCCAGCCG (SEQ ID NO: 14) [ML10]”, the “inhibition of M. tuberculosis growth in the presence of ethambutol, added only once” value ([2]; 10 μM plus ethambutol 5 μg/ml, 9 weeks) was “slightly enhanced the inhibition”, the “M. tuberculosis growth relative to control, added only once at the start” value ([2]; 10 μM, no antibiotic, 9 weeks, O.D.) was “slightly inhibited” and the “M. tuberculosis growth relative to control, added weekly for 9 weeks” value ([2]; 10 μM, no antibiotic, O.D.) was “inhibited”.

For `CC[C@@H](CO)NCCN[C@@H](CC)CO` [ethambutol], the MIC [3] was about 10 µg/mL (≈ 48.9 µM) and the MIC [4] was about 5 µg/mL (≈ 24.5 µM).

With “5′>CGCGATCGCGTTCTCGGGGATGCTCAC (dC*dG*dC*dG*dA*dT*dC*dG*dC*dG*dT*dT*dC*dT*dC*dG*dG*dG*dG*dA*dT*dG*dC*dT*dC*dA*dC; antisense) [ppsE]” the “log Reduction” value [5] was 0 log.

For “5′-CCATGTCTTCACCGCTTCATCCTG (SEQ ID NO: 10) [Val 26]”, the “inhibition of M. tuberculosis … (in words)” value [1] was “enhanced the inhibition” and the “M. tuberculosis growth in the absence” value [1] was “did not inhibit”.

In the case of “5′-TGGGGCTGGCCATGTCTTCAC-3′ (SEQ ID NO: 7) [Val 23]”, the “inhibition of M. tuberculosis … (in words)” value [1] is reported as “enhanced the inhibition” and the “M. tuberculosis growth in the absence” value [1] is reported as “inhibited”.

In the case of “5′>ACGAACCCTGTCAACAAGCTGCAT-GGGGG (antisense dA*dC*dG*dA*dA*dC*dC*dC*dT*dG*dT*dC*dA*dA*dC*dA*dA*dG*dC*dT*dG*dC*dA*dT*dG*dG*dG*dG*dG) [fbpA (SEQ ID NO: 27), antisense PS-ODN against fbpA with five Gs attached to the 3′ end]”, the “log Reduction” value [5] is reported as 0.8 log.

In the case of `NCC[C@H](O)C(=O)N[C@@H]1C[C@H](N)[C@@H](O[C@H]2O[C@H](CN)[C@@H](O)[C@H](O)[C@H]2O)[C@H](O)[C@H]1O[C@H]1O[C@H](CO)[C@@H](O)[C@H](N)[C@H]1O` [amikacin, reference compound], the “antibacterial effect of free antibiotic (in words)” value ([6]; 1 μM) is reported as “bacteriostatic” and the “antibacterial effect of free antibiotic (in words)” value ([6]; 5.8 μg per ml (10 μM)) is reported as “strongly bactericidal”.

In the case of “5′>AATCCGGCTGAAAGCCGTTCGCATCAC (dA*dA*dT*dC*dC*dG*dG*dC*dT*dG*dA*dA*dA*dG*dC*dC*dG*dT*dT*dC*dG*dC*dA*dT*dC*dA*dC; antisense) [ppsB]”, the “log Reduction” value [5] is reported as 0 log.

In the case of “5′-CGCTTCATCCTGCCGTGTCGG (SEQ ID NO: 8) [Val 24]”, the “inhibition of M. tuberculosis … (in words)” value [1] is reported as “enhanced the inhibition” and the “M. tuberculosis growth in the absence” value [1] is reported as “did not inhibit”.

In the case of “5′>AATGATTTCTTCCTGAGTGACAGGCAC (dA*dA*dT*dG*dA*dT*dT*dT*dC*dT*dT*dC*dC*dT*dG*dA*dG*dT*dG*dA*dC*dA*dG*dG*dC*dA*dC; antisense) [acpM]”, the “log Reduction” value [5] is reported as 0 log.

For “5′>GACATTCTCCCAGAACCGTTTCAC (chemistry not given here) [air, antisense PS-ODN against the alr gene (alanine racemase) transcript]”, the “log Reduction” value [5] was 0.2 log.

With “5′-CACCTTCGCCACGATTGGAGCCCTCCA (SEQ ID NO: 13) (phosphorothioate, further chemistry not given here; listed as Mycobacterium tuberculosis) [Val 41, PS-ODN against nucleotides −15 to 12 of the groES gene]” the “inhibition of M. tuberculosis … (in words)” value [1] was “enhanced the inhibition” and the “M. tuberculosis growth in the absence” value [1] was “did not inhibit”.

With “5′>CACATCCAGCGACTTGGCCAGCTC (dC*dA*dC*dA*dT*dC*dC*dA*dG*dC*dG*dA*dC*dT*dT*dG*dG*dC*dC*dA*dG*dC*dT*dC; antisense) [rfbE]” the “log Reduction” value [5] was 0 log.

In the case of `CC(C)C[C@@H]1NC(=O)[C@@H](Cc2ccccc2)NC(=O)[C@H](CCN)NC(=O)[C@@H](NC(=O)[C@H](CCN)NC(=O)[C@@H](N)[C@@H](C)O)CCNC(=O)[C@H]([C@@H](C)O)NC(=O)[C@H](CCN)NC(=O)[C@H](CCN)NC1=O` [polymyxin B nonapeptide] (H-T[Dab][Dab][Dab][dF]L[Dab][Dab]T; lactam 3-C; N-terminus assumed), the MIC [7] is reported as about 5 µg/mL (≈ 5.19 µM) and the MIC [8] is reported as about 5 µg/mL (≈ 5.19 µM).

With “5′>AACGAATTCCTTCTGTCGGTCCAT (dA*dA*dC*dG*dA*dA*dT*dT*dC*dC*dT*dT*dC*dT*dG*dT*dC*dG*dG*dT*dC*dC*dA*dT; antisense) [glnA2]” the “log Reduction” value [5] was 0.05-0.1 log.

With “5′>2′OMeACGAAC-CCTGTCAACAAG-2′OMeCTGCAT (antisense ACGAACCCTGTCAACAAGCTGCAT; sugars from the 5' end m6 d12 m6, all phosphorothioate, T or U not given here) [fbpA (SEQ ID NO: 26), antisense PS-ODN against fbpA with O-methyl groups at the 5′ and 3′ ends]” the “log Reduction” value [5] was 0.4 log.

In the case of “5′>TC(c->g)GCGATCTGGTGTCGCTGCGGTCAT (phosphorothioate, 5' TC(c->g) prefix, further chemistry not given here) [ppsC]”, the “log Reduction” value [5] is reported as 0 log.

For “5′>CGCCGCGCGCTCCGCCAGACTTGTCAT (dC*dG*dC*dC*dG*dC*dG*dC*dG*dC*dT*dC*dC*dG*dC*dC*dA*dG*dA*dC*dT*dT*dG*dT*dC*dA*dT; antisense) [ppsD]”, the “log Reduction” value [5] was 0 log.

For “5′>GCTCTGAAACGTGCCGGTCTGAAC (dG*dC*dT*dC*dT*dG*dA*dA*dA*dC*dG*dT*dG*dC*dC*dG*dG*dT*dC*dT*dG*dA*dA*dC; antisense) [fadD26]”, the “log Reduction” value [5] was 0.65 log.

With “5′>2′OMeATTCTT-TCGGCTCACGTC-2′OMeTGTCAT [fbpB (SEQ ID NO: 25)]” the “log Reduction” value [5] was 0.4 log.

With “5′>FL-GCCGGGGTGTTGATATCCCAGCCG (5' {FL}, sugars by position and backbone not given here) [fbpB (SEQ ID NO: 24), antisense PS-ODN against fbpB (30 kDa protein gene) with fluorescein attached to the 5′ end]” the “log Reduction” value [5] was 0.6 log.

With “5′>AACGGGAGTGACACGTGATTCCAT (dA*dA*dC*dG*dG*dG*dA*dG*dT*dG*dA*dC*dA*dC*dG*dT*dG*dA*dT*dT*dC*dC*dA*dT) [mas]” the “log Reduction” value [5] was 0.35 log.

For “5′-TGGCCATGTCTTCACCGCTTCATCCTG (SEQ ID NO: 9) [Val 25]”, the “M. tuberculosis growth in the absence” value [1] was “did not inhibit”.

In the case of “5′>TTTGCCGTCCAGCAGTCCTGTCAT (chemistry not given here) [lnhA]”, the “log Reduction” value [5] is reported as 0.05 log.

In the case of “5′>CGGCCCTGCATGTCGGTGAACGCG (dC*dG*dG*dC*dC*dC*dT*dG*dC*dA*dT*dG*dT*dC*dG*dG*dT*dG*dA*dA*dC*dG*dC*dG; antisense) [glnA4]”, the “log Reduction” value [5] is reported as 0 log.

In the case of “5′>CAAGATGGACACCGTCACCGCTAC (dC*dA*dA*dG*dA*dT*dG*dG*dA*dC*dA*dC*dC*dG*dT*dC*dA*dC*dC*dG*dC*dT*dA*dC; antisense) [murX]”, the “log Reduction” value [5] is reported as 0 log.

In the case of “5′>GCACGGTCTTGGCCTGGGTGAGTC (dG*dC*dA*dC*dG*dG*dT*dC*dT*dT*dG*dG*dC*dC*dT*dG*dG*dG*dT*dG*dA*dG*dT*dC; antisense) [glnA3]”, the “log Reduction” value [5] is reported as 0 log.

With “5′>GCCATTAGCGGTGGAAGGCTGACTCAC (dG*dC*dC*dA*dT*dT*dA*dG*dC*dG*dG*dT*dG*dG*dA*dA*dG*dG*dC*dT*dG*dA*dC*dT*dC*dA*dC; antisense) [kasA]” the “log Reduction” value [5] was 0 log.

In the case of `CS(=N)(=O)CC[C@H](N)C(=O)O` (stereo partly drawn) [L-methionine-S-sulfoximine], the “inhibition of bacterial growth” value ([9]; 2 μM) is listed as 1.5-2 log units, the “reduction of bacterial growth” value ([9]; 20 μM) is listed as at least 2.5 log units and the “reduction of the amount of the poly-L-glutamate/glutamine cell wall structure” value [10] is listed as 93%. For the same compound, the “reduction of extracellular glutamine synthetase activity” value [11] was 80%.

With “5′>GGACACCTCGAGACCGTACTGCAC (dG*dG*dA*dC*dA*dC*dC*dT*dC*dG*dA*dG*dA*dC*dC*dG*dT*dA*dC*dT*dG*dC*dA*dC) [rfe]” the “log Reduction” value [5] was 0.25 log.

With “5′>TTCACCACTGATGCTTCCCGTCAT (dT*dT*dC*dA*dC*dC*dA*dC*dT*dG*dA*dT*dG*dC*dT*dT*dC*dC*dC*dG*dT*dC*dA*dT; antisense) [ppsA]” the “log Reduction” value [5] was 0 log.

In the case of “5′-TGCCGCAGCCACGGCGACGGCCGTGGT (SEQ ID NO: 11) [Val 33]”, the “inhibition of M. tuberculosis … (in words)” value [1] is reported as “enhanced the inhibition” and the “M. tuberculosis growth in the absence” value [1] is reported as “inhibited”.
